Where a name gives a salt, the structure may show the parent alone.
What follows are compounds tested against T1, G9a (Homo sapiens, UniProt Q96KQ7) (assay: G9a AlphaLISA enzymatic activity assay). Settings: 0.15 nM G9a, 15 uM S-adenosyl-methionine, 100 nM biotinylated histone 3 peptide (1-21), 1 hour at room temperature; read-out: G9a in (uM) (IC50, concentration that produced 50% inhibition).
T1 sequence (Q96KQ7 1-1210): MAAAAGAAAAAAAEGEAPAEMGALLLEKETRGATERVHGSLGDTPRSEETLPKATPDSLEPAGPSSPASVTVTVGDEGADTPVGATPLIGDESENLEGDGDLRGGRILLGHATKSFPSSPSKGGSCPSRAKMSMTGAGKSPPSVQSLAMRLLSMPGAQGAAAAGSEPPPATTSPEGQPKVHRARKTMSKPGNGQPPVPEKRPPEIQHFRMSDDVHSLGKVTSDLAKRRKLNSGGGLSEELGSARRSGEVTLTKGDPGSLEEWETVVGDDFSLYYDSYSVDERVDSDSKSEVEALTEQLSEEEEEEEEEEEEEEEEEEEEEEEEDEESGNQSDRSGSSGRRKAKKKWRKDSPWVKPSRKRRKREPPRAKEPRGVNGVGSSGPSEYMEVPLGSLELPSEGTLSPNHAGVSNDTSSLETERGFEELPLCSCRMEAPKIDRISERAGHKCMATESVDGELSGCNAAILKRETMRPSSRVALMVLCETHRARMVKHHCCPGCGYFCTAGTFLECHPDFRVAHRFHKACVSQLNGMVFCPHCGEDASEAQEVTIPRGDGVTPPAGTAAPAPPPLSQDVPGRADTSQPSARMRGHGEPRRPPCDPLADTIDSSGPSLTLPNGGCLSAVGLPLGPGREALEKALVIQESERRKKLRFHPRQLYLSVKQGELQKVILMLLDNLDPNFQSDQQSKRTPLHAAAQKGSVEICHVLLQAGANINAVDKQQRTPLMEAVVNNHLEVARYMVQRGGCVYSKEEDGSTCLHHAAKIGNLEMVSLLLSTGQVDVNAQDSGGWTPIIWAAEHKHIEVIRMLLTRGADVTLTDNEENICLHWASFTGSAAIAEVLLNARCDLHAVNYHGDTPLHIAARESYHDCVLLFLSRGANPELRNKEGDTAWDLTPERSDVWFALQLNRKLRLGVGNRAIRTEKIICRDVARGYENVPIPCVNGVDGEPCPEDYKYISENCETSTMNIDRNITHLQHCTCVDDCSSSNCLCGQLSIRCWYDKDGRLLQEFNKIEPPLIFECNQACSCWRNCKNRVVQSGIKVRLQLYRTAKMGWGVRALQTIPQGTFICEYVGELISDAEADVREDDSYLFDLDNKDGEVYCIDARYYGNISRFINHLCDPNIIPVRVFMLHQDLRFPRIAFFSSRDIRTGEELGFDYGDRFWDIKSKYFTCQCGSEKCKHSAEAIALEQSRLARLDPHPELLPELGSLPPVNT
Format: biochemical
Excerpt: The G9a AlphaLISA assay was used to detect the methyl modifications of a biotinylated histone H3 peptide by the compounds. These modifications are done by the histone methyl transferase activity of the G9a enzyme. The assay consists of reading a chemiluminescent signal at 615 nm; this signal is generated by a laser excitation at 680 nm that transfers a reactive singlet oxygen between the donor beads and acceptor beads. Donor beads are streptavidin conjugated and bind to the biotin on the peptide. Acceptor beads are conjugated with an antibody that recognizes the specific G9a methyl mark on the peptide. If there is a methyl mark on the peptide, the acceptor beads will bind to the peptide. Upon binding, the acceptor beads will be in close proximity (<200 nm) of the donor beads and when the donor beads are excited, the transfer of the oxygen can occur and a strong signal will be generated. If there is no methyl mark, the interaction between beads will not occur and signal will be at background levels.
For the assay, the following buffer was used to set up reactions: 50 mM Tris-HCl pH9, 50 mM NaCl, 0.01% Tween-20 and 1 mM DTT (added fresh prior to starting the reactions). The assay is set up by adding a final concentration of 0.15 nM G9a, 15 uM S-adenosyl-methionine and, 100 nM biotinylated histone 3 peptide (1-21). The reaction is incubated at room temperature for 1 hour, and subsequently quenched by the addition of the acceptor beads (anti-H3k9me2 AlphaLISA acceptor beads, PerkinElmer # AL117) at a final concentration of 20 ug/mL. The acceptor beads are incubated for 1 hour. After 1 hour, the donor beads are added at a final concentration of 20 ug/mL (Alpha Streptavidin donor beads, PerkinElmer #6760002). Donor beads are incubated for 0.5 hours. Both donor and acceptor beads are resuspended in AlphaLISA 5X Epigenetics Buffer 1 Kit (PerkinElmer # AL008) prior to addition to the reaction. All manipulations and incubations with the donor and acceptor beads are done in subdued light. Signal is detected in an EnVision plate reader in Alpha mode (see ACS Med Chem Lett. 2014 Jan. 2; 5(2):205-9. doi: 10.1021/m1400496h. eCollection 2014. Discovery and development of potent and selective inhibitors of histone methyltransferase g9a.)
Percent inhibition was calculated for each compound dilution and the concentration that produced 50% inhibition was calculated. This value is presented as the IC50.
Work on `COc1cc2c3c(c(NC(C)C)nc2cc1OCCCN1CCCC1)CC(C)(C)C3` [Example 54, 8-methoxy-2,2-dimethyl-N-(propan-2-yl)-7-[3-(pyrrolidin-1-yl)propoxy]-1H,2H,3H-cyclopenta[c]quinolin-4-amine formate] yielded an IC50 of 0.048 µM.
`CNc1nc2cc(OCCCN3CCCC3)c(OC)cc2c2c1CCC2` [Example 1, 8-methoxy-N-methyl-7-[3-(pyrrolidin-1-yl)propoxy]-1H,2H,3H-cyclopenta[c]quinolin-4-amine formate] was tested, and the IC50 was 0.031 µM.
`COc1cc2c3c(c(N[C@H]4CC[C@H](O)CC4)nc2cc1OCCCN1CCCC1)CCC3` [Example 123, (1R,4R)-4-({8-methoxy-7-[3-(pyrrolidin-1-yl)propoxy]-1H,2H,3H-cyclopenta[c]quinolin-4-yl}amino)cyclohexan-1-ol formate] gave an IC50 of 0.17 µM.
In the case of `COc1cc2c3c(c(NC4CCN(C(C)C)CC4)nc2cc1OCCCN1CCCC1)CCC3` [Example 43, N-{8-methoxy-7-[3-(pyrrolidin-1-yl)propoxy]-1H,2H,3H-cyclopenta[c]quinolin-4-yl}-1-(propan-2-yl)piperidin-4-amine formate], the IC50 is reported as 1.7 µM.
`CNc1nc2cc(OCCCN3CCCC3)c(OC)cc2c2c1COCC2` [Example 57, 9-methoxy-N-methyl-8-[3-(pyrrolidin-1-yl)propoxy]-1H,2H,4H-pyrano[3,4-c]quinolin-5-amine formate] was tested, and the IC50 was 0.21 µM.
Compound `COc1cc2c3c(c(N[C@H]4CCOC4)nc2cc1OCCCN1CCCC1)CCC3` [Example 18, 8-methoxy-N-[(3S)-oxolan-3-yl]-7-[3-(pyrrolidin-1-yl)propoxy]-1H,2H,3H-cyclopenta[c]quinolin-4-amine formate] has an IC50 of 0.11 µM.
`COc1cc2c3c(c(N)nc2cc1OCCCN1CCCC1)CC(C)(C)C3` [Example 118, 8-methoxy-2,2-dimethyl-7-[3-(pyrrolidin-1-yl)propoxy]-1H,2H,3H-cyclopenta[c]quinolin-4-amine formate] gave an IC50 of 0.018 µM.
`CC[C@@H](C)Nc1nc2cc(OCCCN3CCCC3)c(OC)cc2c2c1CCC2` [Example 100, N-[(2R)-butan-2-yl]-8-methoxy-7-[3-(pyrrolidin-1-yl)propoxy]-1H,2H,3H-cyclopenta[c]quinolin-4-amine formate] showed an IC50 of 0.047 µM.
With `COc1cc2c3c(c(C4=CCCC4)nc2cc1OCCCN1CCCC1)CC(C)(C)N3` [Example 83, 1-(3-{[4-(cyclopent-1-en-1-yl)-8-methoxy-2,2-dimethyl-1H,2H,3H-pyrrolo[3,2-c]quinolin-7-yl]oxy}propyl)pyrrolidine] the IC50 was 0.009 µM.
`CNc1nc2cc(OCCCN3CCCC3)c(OC)cc2c2c1CC(C)(C)C2` [Example 53, 8-methoxy-N,2,2-trimethyl-7-[3-(pyrrolidin-1-yl)propoxy]-1H,2H,3H-cyclopenta[c]quinolin-4-amine formate] gave an IC50 of 0.043 µM.
For `COc1cc2c3c(c(C)nc2cc1OCCCN1CCCC1)CCCCN3` [Example 82, 1-[3-({10-methoxy-6-methyl-1H,2H,3H,4H,5H-azepino[3,2-c]quinolin-9-yl}oxy)propyl]pyrrolidine trifluoroacetate], the IC50 was 0.006 µM.
Work on `COc1cc2c3c(c(NCC4CC4)nc2cc1OCCCN1CCCC1)CC(C)(C)C3` [Example 97, N-(cyclopropylmethyl)-8-methoxy-2,2-dimethyl-7-[3-(pyrrolidin-1-yl)propoxy]-1H,2H,3H-cyclopenta[c]quinolin-4-amine formate] yielded an IC50 of 0.084 µM.
`COc1ccc(CNc2nc3cc(OCCCN4CCCC4)c(OC)cc3c3c2CCC3)c(OC)c1` [Example 115, N-[(2,4-dimethoxyphenyl)methyl]-8-methoxy-7-[3-(pyrrolidin-1-yl)propoxy]-1H,2H,3H-cyclopenta[c]quinolin-4-amine formate] showed an IC50 of 0.009 µM.
For `COc1cc2c3c(c(NC4(C(=O)O)CC4)nc2cc1OCCCN1CCCC1)CCC3` [Example 62, 1-({8-methoxy-7-[3-(pyrrolidin-1-yl)propoxy]-1H,2H,3H-cyclopenta[c]quinolin-4-yl}amino)cyclopropane-1-carboxylic acid formate], the IC50 was 0.12 µM.
Compound `COc1cc2c3c(c(C(C)C)nc2cc1OCCCN1CCCC1)CCCCN3` [Example 81, 1-(3-{[10-methoxy-6-(propan-2-yl)-1H,2H,3H,4H,5H-azepino[3,2-c]quinolin-9-yl]oxy}propyl)pyrrolidine trifluoroacetate] has an IC50 of 0.009 µM.
With `COc1cc2c3c(c(N[C@H]4CCCC[C@@H]4O)nc2cc1OCCCN1CCCC1)CCC3` [Example 122, (1S,2S)-2-({8-methoxy-7-[3-(pyrrolidin-1-yl)propoxy]-1H,2H,3H-cyclopenta[c]quinolin-4-yl}amino)cyclohexan-1-ol formate] the IC50 was 0.043 µM.
`COc1cc2c3c(c(NC(C)=O)nc2cc1OCCCN1CCCC1)CCC3` [Example 14, N-{8-methoxy-7-[3-(pyrrolidin-1-yl)propoxy]-1H,2H,3H-cyclopenta[c]quinolin-4-yl}acetamide trifluoroacetate] showed an IC50 of 0.19 µM.
Compound `COc1cc2c3c(c(C)nc2cc1OCCCN1CCCC1)CCC(C)N3` (stereo not drawn) [Example 31, 1-[3-({9-methoxy-2,5-dimethyl-1H,2H,3H,4H-benzo[h]1,6-naphthyridin-8-yl}oxy)propyl]pyrrolidine trifluoroacetate] has an IC50 of 0.009 µM.
Work on `CCCNc1nc2cc(OCCCN3CCCC3)c(OC)cc2c2c1CCC2` [Example 104, 8-methoxy-N-propyl-7-[3-(pyrrolidin-1-yl)propoxy]-1H,2H,3H-cyclopenta[c]quinolin-4-amine trifluoroacetate] yielded an IC50 of 0.02 µM.
`COc1cc2c3c(c(C)nc2cc1OCCCN1CCCC1)CCCN3` [Example 28, 1-[3-({9-methoxy-5-methyl-1H,2H,3H,4H-benzo[h]1,6-naphthyridin-8-yl}oxy)propyl]pyrrolidine trifluoroacetate] gave an IC50 of 0.006 µM.
Work on `CCNc1nc2cc(OCCCN3CCCC3)c(OC)cc2c2c1CC(C)(C)C2` [Example 74, N-ethyl-8-methoxy-2,2-dimethyl-7-[3-(pyrrolidin-1-yl)propoxy]-1H,2H,3H-cyclopenta[c]quinolin-4-amine formate] yielded an IC50 of 0.015 µM.
For `COc1cc2c3c(c(N)nc2cc1OCCCN1CCCC1)CCC3` [Example 116, 8-methoxy-7-[3-(pyrrolidin-1-yl)propoxy]-1H,2H,3H-cyclopenta[c]quinolin-4-amine formate], the IC50 was 0.006 µM.
`COc1cc2c3c(c(NCCC(C)C)nc2cc1OCCCN1CCCC1)CC(C)(C)C3` [Example 87, 8-methoxy-2,2-dimethyl-N-(3-methylbutyl)-7-[3-(pyrrolidin-1-yl)propoxy]-1H,2H,3H-cyclopenta[c]quinolin-4-amine formate] showed an IC50 of 0.15 µM.
For `COc1cc2c3c(c(NC(C)C)nc2cc1OCCCN1CCC(C)(C)C1)CCC3` [Example 86, 7-[3-(3,3-dimethylpyrrolidin-1-yl)propoxy]-8-methoxy-N-(propan-2-yl)-1H,2H,3H-cyclopenta[c]quinolin-4-amine formate], the IC50 was over 10 µM.

— patent US10829452B2, “Histone methyltransferase inhibitors” (GLOBAL BLOOD THERAPEUTICS, INC., priority 2016, dated 2020)
